Test results as given in US8673894B2 (Hoffmann-La Roche Inc., priority 2010, dated 2014).
Counter-ions that a name gives are not always drawn.

Columns and labels:
[1] = target: T1, endogenous cellular BACE2 (Rattus norvegicus, UniProt Q6IE75); experiment: Assay for BACE inhibition by measuring cellular TMEM27 cleavage; format: cell-based; conditions: INS-TMEM27 (INS1e-derived) cells, shed human TMEM27 in supernatant by ELISA
T1 construct: endogenous cellular BACE2 in the Ins1e rat cell line; endogenous in cells; host or cells: INS-TMEM27 (INS1e-derived rat insulinoma cell line with doxycycline-inducible full-length human TMEM27)
T1 sequence (Q6IE75 63-514): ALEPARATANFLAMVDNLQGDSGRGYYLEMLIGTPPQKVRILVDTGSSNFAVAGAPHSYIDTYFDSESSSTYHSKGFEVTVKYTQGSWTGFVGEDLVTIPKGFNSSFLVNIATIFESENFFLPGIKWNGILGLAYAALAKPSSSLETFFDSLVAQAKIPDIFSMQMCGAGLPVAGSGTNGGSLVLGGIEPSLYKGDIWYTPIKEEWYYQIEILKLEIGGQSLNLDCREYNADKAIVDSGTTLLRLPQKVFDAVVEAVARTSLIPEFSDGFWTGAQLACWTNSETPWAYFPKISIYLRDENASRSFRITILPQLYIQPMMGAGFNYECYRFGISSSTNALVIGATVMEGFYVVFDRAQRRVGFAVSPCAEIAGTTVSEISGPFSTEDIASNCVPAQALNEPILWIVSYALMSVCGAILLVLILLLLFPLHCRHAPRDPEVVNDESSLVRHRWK
Summary of the method: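 INS1e rat cells with doxycycline-inducible human TMEM27 get inhibitor 2 h before doxycycline (500 ng/ml final), then 46 h further at 37° C. Shed TMEM27 in the supernatant is measured by sandwich ELISA, and the EC50 comes from a curve fit of the ELISA signal.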

Aβ40 = experiment: Cellular Aβ-lowering assay; format: cell-based; conditions: HEK293 cells stably expressing human APP695, Aβ40 in supernatant by ELISA after 18-20 hrs; read-out: Cellular assay Abeta40 IC50
Summary of the method: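 HEK293 cells stably expressing human wild-type APP695 were treated with compound for 18-20 h at 37 °C in 0.8% v/v DMSO. Secreted Aβ40 in the supernatant was measured by sandwich ELISA (Aβ40 C-terminus-specific capture, HRP-4G8 detection, TMB read at 450 nm) and quantified against a pure Aβ peptide standard curve.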

Row | IC50 [1] [nM] | IC50 (Aβ40) [nM] | SMILES
1 | 280 | 14 | CCOCc1ccc(C(=O)Nc2ccc(F)c([C@@]3(C)N=C(N)COCC3(F)F)c2)nc1 [Example 57, (R)-N-(3-(3-amino-6,6-difluoro-5-methyl-2,5,6,7-tetrahydro-1,4-oxazepin-5-yl)-4-fluorophenyl)-5-(ethoxymethyl)picolinamide formate]
2 | 44 | 250 | CC[C@@]1(c2cc(NC(=O)c3ccc(F)cn3)ccc2F)CCOCC(N)=N1 [Example 13, 5-Fluoro-pyridine-2-carboxylic acid [3-((S)-3-amino-5-ethyl-2,5,6,7-tetrahydro-[1,4]oxazepin-5-yl)-4-fluoro-phenyl]-amide]
3 | 49.5 | 5.7 | C[C@]1(c2cc(NC(=O)c3ccc(C(F)F)cn3)ccc2F)N=C(N)COCC1(F)F [Example 108, (R)-N-(3-(3-Amino-6,6-difluoro-5-methyl-2,5,6,7-tetrahydro-1,4-oxazepin-5-yl)-4-fluorophenyl)-5-(difluoromethyl)picolinamide formate]
4 | 41 | 10 | C[C@@]1(c2cc(NC(=O)c3ccc(C#N)cn3)ccc2F)COCCC(N)=N1 [Example 53, 5-Cyano-pyridine-2-carboxylic acid [3-((R)-5-amino-3-methyl-2,3,6,7-tetrahydro-[1,4]oxazepin-3-yl)-4-fluoro-phenyl]-amide]
5 | 69.5 | 93 | CC[C@@]1(c2cc(NC(=O)c3ccc(Cl)cn3)ccc2F)CCOCC(N)=N1 [Example 14, 5-Chloro-pyridine-2-carboxylic acid [3-((S)-3-amino-5-ethyl-2,5,6,7-tetrahydro-[1,4]oxazepin-5-yl)-4-fluoro-phenyl]-amide]
6 | 139 | 120 | CCOC(=O)c1ccc(C(=O)Nc2ccc(F)c([C@@]3(C)N=C(N)COCC3(F)F)c2)nc1 [Example 58, (R)-ethyl 6-(3-(3-amino-6,6-difluoro-5-methyl-2,5,6,7-tetrahydro-1,4-oxazepin-5-yl)-4-fluorophenylcarbamoyl)nicotinate formate formate]
7 | 67.1 | 70 | CC[C@]1(c2cc(NC(=O)c3ccc(C#N)cn3)ccc2F)N=C(N)COCC1(F)F [Example 79, (R)-N-(3-(3-Amino-5-ethyl-6,6-difluoro-2,5,6,7-tetrahydro-1,4-oxazepin-5-yl)-4-fluorophenyl)-5-cyanopicolinamide]
8 | 3.3 | 5.3 | C[C@]1(c2cc(NC(=O)c3ccc(F)cn3)ccc2F)N=C(N)COCC1(F)F [Example 29, (R)-N-(3-(3-amino-6,6-difluoro-5-methyl-2,5,6,7-tetrahydro-1,4-oxazepin-5-yl)-4-fluorophenyl)-5-fluoropicolinamide formate]
9 | 74.3 | 60 | CC[C@]1(c2cc(NC(=O)c3ccc(F)cn3)ccc2F)N=C(N)COCC1(F)F [Example 78, (R)-N-(3-(3-Amino-5-ethyl-6,6-difluoro-2,5,6,7-tetrahydro-1,4-oxazepin-5-yl)-4-fluorophenyl)-5-fluoropicolinamide]

The remaining lines, values behind:

Row | SMILES | IC50 [1] [nM] | IC50 (Aβ40) [nM]
10 | CC[C@]1(c2cc(NC(=O)c3ncoc3C)ccc2F)N=C(N)COCC1(F)F [Example 87, (R)-N-(3-(3-amino-5-ethyl-6,6-difluoro-2,5,6,7-tetrahydro-1,4-oxazepin-5-yl)-4-fluorophenyl)-5-methyloxazole-4-carboxamide] | 134 | 1120
11 | C[C@]1(c2cc(NC(=O)c3ncc(F)cc3F)ccc2F)N=C(N)COCC1(F)F [Example 32, (R)-N-(3-(3-amino-6,6-difluoro-5-methyl-2,5,6,7-tetrahydro-1,4-oxazepin-5-yl)-4-fluorophenyl)-3,5-difluoropicolinamide formate] | 4.4 | 4.5
12 | C[C@]1(c2cc(NC(=O)C3(C(F)(F)F)CC3)ccc2F)N=C(N)COCC1(F)F [Example 33, (R)-N-(3-(3-amino-6,6-difluoro-5-methyl-2,5,6,7-tetrahydro-1,4-oxazepin-5-yl)-4-fluorophenyl)-1-(trifluoromethyl)cyclopropanecarboxamide formate] | 240 | 90
13 | C[C@]1(c2cc(NC(=O)c3ccc(OCC(F)(F)C(F)F)cn3)ccc2F)N=C(N)COCC1(F)F [Example 54, (R)-N-(3-(3-amino-6,6-difluoro-5-methyl-2,5,6,7-tetrahydro-1,4-oxazepin-5-yl)-4-fluorophenyl)-5-(2,2,3,3-tetrafluoropropoxy)picolinamide formate] | 570 | 29
14 | C[C@]1(c2cc(NC(=O)c3ncccc3F)ccc2F)N=C(N)COCC1(F)F [Example 27, (R)-N-(3-(3-amino-6,6-difluoro-5-methyl-2,5,6,7-tetrahydro-1,4-oxazepin-5-yl)-4-fluorophenyl)-3-fluoropicolinamide, salt with formic acid] | 58 | 44
15 | CC1(C)C[C@@](C)(c2cc(NC(=O)c3ncc(C(F)(F)F)cc3Cl)ccc2F)N=C(N)CO1 [Example 21, 3-Chloro-5-trifluoromethyl-pyridine-2-carboxylic acid [3-((S)-3-amino-5,7,7-trimethyl-2,5,6,7-tetrahydro-[1,4]oxazepin-5-yl)-4-fluoro-phenyl]-amide] | 8.7 | 3.2
16 | CC1(C)OCC[C@@](C)(c2cc(NC(=O)c3ccc(Cl)cn3)ccc2F)N=C1N [Example 47, 5-Chloro-pyridine-2-carboxylic acid [3-((S)-3-amino-2,2,5-trimethyl-2,5,6,7-tetrahydro-[1,4]oxazepin-5-yl)-4-fluoro-phenyl]-amide] | 46 | 58
17 | Cc1nc(C(=O)Nc2ccc(F)c([C@@]3(C)N=C(N)COCC3(F)F)c2)c(C(F)(F)F)o1 [Example 113, (R)-N-(3-(3-Amino-6,6-difluoro-5-methyl-2,5,6,7-tetrahydro-1,4-oxazepin-5-yl)-4-fluorophenyl)-2-methyl-5-(trifluoromethyl)oxazole-4-carboxamide] | 123 | 35.8
18 | CC[C@]1(c2cc(NC(=O)c3n[nH]cc3Cl)ccc2F)N=C(N)COCC1(F)F [Example 86, (R)-N-(3-(3-Amino-5-ethyl-6,6-difluoro-2,5,6,7-tetrahydro-1,4-oxazepin-5-yl)-4-fluorophenyl)-4-chloro-1H-pyrazole-3-carboxamide] | 491 | 370
19 | C[C@@]1(c2cc(NC(=O)C3(C(F)(F)F)CC3)ccc2F)CCOCC(N)=N1 [Example 17, 1-Trifluoromethyl-cyclopropanecarboxylic acid [3-((S)-3-amino-5-methyl-2,5,6,7-tetrahydro-[1,4]oxazepin-5-yl)-4-fluoro-phenyl]-amide] | 400 | 920
20 | C[C@@]1(c2cc(NC(=O)c3ccc(F)cn3)ccc2F)C[C@@H](c2ccccc2)OCC(N)=N1 [Example 68, 5-Fluoro-pyridine-2-carboxylic acid [3-((5S,7S)-3-amino-5-methyl-7-phenyl-2,5,6,7-tetrahydro-[1,4]oxazepin-5-yl)-4-fluoro-phenyl]-amide] | 5250 | 3850
21 | Cc1nc(C(=O)Nc2ccc(F)c([C@@]3(C)N=C(N)COCC3(F)F)c2)co1 [Example 42, (R)-N-(3-(3-amino-6,6-difluoro-5-methyl-2,5,6,7-tetrahydro-1,4-oxazepin-5-yl)-4-fluorophenyl)-2-methyloxazole-4-carboxamide formate] | 2.4 | 7.4
22 | C[C@]1(c2cc(NC(=O)c3cnc(OCC(F)F)cn3)ccc2F)N=C(N)COCC1(F)F [Example 74, (R)-N-(3-(3-Amino-6,6-difluoro-5-methyl-2,5,6,7-tetrahydro-1,4-oxazepin-5-yl)-4-fluorophenyl)-5-(2,2-difluoroethoxy)pyrazine-2-carboxamide formate] | 3380 | 10
23 | CC[C@]1(c2cc(NC(=O)c3ncc(Cl)cc3Cl)ccc2F)N=C(N)COCC1(F)F [Example 83, (R)-N-(3-(3-Amino-5-ethyl-6,6-difluoro-2,5,6,7-tetrahydro-1,4-oxazepin-5-yl)-4-fluorophenyl)-3,5-dichloropicolinamide] | 19.7 | 15
24 | CCc1n[nH]c(C(=O)Nc2ccc(F)c([C@@]3(C)N=C(N)COCC3(F)F)c2)c1C [Example 107, (R)-N-(3-(3-Amino-6,6-difluoro-5-methyl-2,5,6,7-tetrahydro-1,4-oxazepin-5-yl)-4-fluorophenyl)-3-ethyl-4-methyl-1H-pyrazole-5-carboxamide] | 886 | 790
25 | NC1=N[C@@]2(c3cccc(NC(=O)c4ccc(OCC(F)(F)F)cn4)c3)C[C@H]2COC1 (racemic) [Example 4, 5-(2,2,2-Trifluoro-ethoxy)-pyridine-2-carboxylic acid [3-((1SR,7RS)-3-amino-5-oxa-2-aza-bicyclo[5.1.0]oct-2-en-1-yl)-phenyl]-amide] | 8900 | 630
